Results taken from ChEMBL document CHEMBL5584296, “Discovery of Novel Pyrimidine-Based Derivatives as Nav1.2 Inhibitors with Efficacy in Mouse Models of Epilepsy” (J Med Chem, 2024).

Experiments:
[1] = target: T1, Sodium channel protein type 2 subunit alpha (Homo sapiens, UniProt Q99250); test: Inhibition of human Nav1.2 expressed in HEK293 cells assessed as test to control ratio at 1 uM measured after 5 mins by whole cell voltage clamp electrophysiological analysis; format: cell-based
[2] = target: T1, Sodium channel protein type 2 subunit alpha; test: Inhibition of human Nav1.2 expressed in HEK293 cells at 0.1 uM measured after 5 mins by whole cell voltage clamp electrophysiological analysis relative to control; format: cell-based
[3] = target: Sodium channel protein type 1 subunit alpha (Homo sapiens) (UniProt P35498); test: Inhibition of human Nav1.1 expressed in HEK293 cells assessed as test to control ratio at 0.1 uM by whole cell voltage clamp electrophysiological analysis; format: cell-based
[4] = target: Sodium channel protein type 1 subunit alpha (Homo sapiens) (UniProt P35498); test: Inhibition of human Nav1.1 expressed in HEK293 cells assessed as test to control ratio at 1 uM by whole cell voltage clamp electrophysiological analysis; format: cell-based
[5] = target: T2, Sodium channel protein type 5 subunit alpha (Homo sapiens, UniProt Q14524); test: Inhibition of human Nav1.5 expressed in CHL cells assessed as test to control ratio at 0.1 uM by whole cell voltage clamp electrophysiological analysis; format: cell-based
[6] = target: T2, Sodium channel protein type 5 subunit alpha; test: Inhibition of human Nav1.5 expressed in CHL cells assessed as test to control ratio at 1 uM by whole cell voltage clamp electrophysiological analysis; format: cell-based
[7] = target: Sodium channel protein type 8 subunit alpha (Homo sapiens) (UniProt Q9UQD0); test: Inhibition of human Nav1.6 expressed in CHO cells assessed as test to control ratio at 0.1 uM by whole cell voltage clamp electrophysiological analysis; format: cell-based
Sodium channel protein type 8 subunit alpha (Homo sapiens), sequence (Q9UQD0 whole entry, looked up): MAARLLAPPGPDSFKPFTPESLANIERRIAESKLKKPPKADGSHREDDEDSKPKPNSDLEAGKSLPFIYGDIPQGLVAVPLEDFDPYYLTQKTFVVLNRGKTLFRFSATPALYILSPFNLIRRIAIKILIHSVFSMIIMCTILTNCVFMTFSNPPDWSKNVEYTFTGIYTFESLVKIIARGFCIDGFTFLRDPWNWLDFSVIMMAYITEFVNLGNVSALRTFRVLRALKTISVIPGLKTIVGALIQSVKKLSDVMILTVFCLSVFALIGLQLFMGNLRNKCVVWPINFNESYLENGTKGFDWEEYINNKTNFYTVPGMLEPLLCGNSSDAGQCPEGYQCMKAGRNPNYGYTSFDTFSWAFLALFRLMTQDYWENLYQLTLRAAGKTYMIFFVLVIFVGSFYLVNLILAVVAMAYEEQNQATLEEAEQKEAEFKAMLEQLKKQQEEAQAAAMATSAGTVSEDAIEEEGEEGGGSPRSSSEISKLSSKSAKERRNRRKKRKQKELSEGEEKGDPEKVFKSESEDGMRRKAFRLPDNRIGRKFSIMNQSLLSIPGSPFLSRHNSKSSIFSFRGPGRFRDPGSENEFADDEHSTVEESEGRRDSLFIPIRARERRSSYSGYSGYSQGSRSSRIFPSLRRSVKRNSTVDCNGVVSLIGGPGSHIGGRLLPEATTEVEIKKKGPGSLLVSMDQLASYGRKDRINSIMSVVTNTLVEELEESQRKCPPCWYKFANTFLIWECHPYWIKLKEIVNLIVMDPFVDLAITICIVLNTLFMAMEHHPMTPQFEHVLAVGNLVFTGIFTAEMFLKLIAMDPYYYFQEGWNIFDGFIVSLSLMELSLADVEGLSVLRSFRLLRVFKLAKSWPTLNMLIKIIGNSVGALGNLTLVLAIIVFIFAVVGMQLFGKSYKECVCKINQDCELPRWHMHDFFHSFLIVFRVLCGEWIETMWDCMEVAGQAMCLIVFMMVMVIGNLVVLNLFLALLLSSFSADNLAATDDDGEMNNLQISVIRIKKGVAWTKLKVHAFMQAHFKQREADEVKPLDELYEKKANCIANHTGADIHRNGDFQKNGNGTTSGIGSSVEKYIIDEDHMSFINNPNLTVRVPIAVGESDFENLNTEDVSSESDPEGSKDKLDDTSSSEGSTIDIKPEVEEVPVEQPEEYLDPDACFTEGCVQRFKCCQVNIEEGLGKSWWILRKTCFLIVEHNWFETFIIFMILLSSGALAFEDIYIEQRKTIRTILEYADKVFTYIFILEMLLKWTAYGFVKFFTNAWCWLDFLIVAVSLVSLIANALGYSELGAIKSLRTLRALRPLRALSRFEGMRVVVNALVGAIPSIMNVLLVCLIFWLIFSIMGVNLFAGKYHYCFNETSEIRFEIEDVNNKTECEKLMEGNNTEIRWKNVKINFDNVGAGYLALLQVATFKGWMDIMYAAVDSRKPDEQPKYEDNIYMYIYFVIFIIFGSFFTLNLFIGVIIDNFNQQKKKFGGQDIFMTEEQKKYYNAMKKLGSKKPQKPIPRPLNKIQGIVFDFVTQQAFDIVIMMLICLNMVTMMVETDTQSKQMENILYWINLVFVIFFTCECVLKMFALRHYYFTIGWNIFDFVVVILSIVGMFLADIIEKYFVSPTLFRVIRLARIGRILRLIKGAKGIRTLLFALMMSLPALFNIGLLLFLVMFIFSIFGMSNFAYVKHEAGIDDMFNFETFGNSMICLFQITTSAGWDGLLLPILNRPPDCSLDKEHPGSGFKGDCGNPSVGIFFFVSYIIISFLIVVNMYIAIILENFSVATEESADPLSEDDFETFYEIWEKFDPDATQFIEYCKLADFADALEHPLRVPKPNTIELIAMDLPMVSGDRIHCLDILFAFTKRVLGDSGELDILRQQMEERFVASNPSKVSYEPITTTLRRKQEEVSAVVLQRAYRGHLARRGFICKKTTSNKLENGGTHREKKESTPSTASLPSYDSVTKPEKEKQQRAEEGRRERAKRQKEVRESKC

[8] = target: Sodium channel protein type 8 subunit alpha (Homo sapiens) (UniProt Q9UQD0); test: Inhibition of human Nav1.6 expressed in CHO cells assessed as test to control ratio at 1 uM by whole cell voltage clamp electrophysiological analysis; format: cell-based
[9] = Tmax in male ICR mouse at 20 mg/kg, po measured after 24 hrs by LC-MS/MS analysis; format: ADME, organism-based; conditions: in vivo
[10] = Cmax in male ICR mouse at 20 mg/kg, po measured after 24 hrs by LC-MS/MS analysis; format: ADME, organism-based; conditions: in vivo
[11] = AUC (0 to infinity) in male ICR mouse at 20 mg/kg, po measured after 24 hrs by LC-MS/MS analysis; format: ADME, organism-based; conditions: in vivo
[12] = MRT (0 to infinity) in male ICR mouse at 20 mg/kg, po measured after 24 hrs by LC-MS/MS analysis; format: ADME, organism-based; conditions: in vivo
[13] = Half-life in male ICR mouse at 20 mg/kg, po measured after 24 hrs by LC-MS/MS analysis; format: ADME, organism-based; conditions: in vivo
[14] = Oral bioavailability in male ICR mouse at 20 mg/kg measured after 24 hrs by LC-MS/MS analysis; format: ADME, organism-based; conditions: in vivo
[15] = Tmax in male ICR mouse at 10 mg/kg, ip measured after 24 hrs by LC-MS/MS analysis; format: ADME, organism-based; conditions: in vivo
[16] = Cmax in male ICR mouse at 10 mg/kg, ip measured after 24 hrs by LC-MS/MS analysis; format: ADME, organism-based; conditions: in vivo
[17] = AUC (0 to infinity) in male ICR mouse at 10 mg/kg, ip measured after 24 hrs by LC-MS/MS analysis; format: ADME, organism-based; conditions: in vivo
[18] = MRT (0 to infinity) in male ICR mouse at 10 mg/kg, ip measured after 24 hrs by LC-MS/MS analysis; format: ADME, organism-based; conditions: in vivo
[19] = Tmax in male ICR mouse at 1 mg/kg, iv measured after 24 hrs by LC-MS/MS analysis; format: ADME, organism-based; conditions: in vivo
[20] = Cmax in male ICR mouse at 1 mg/kg, iv measured after 24 hrs by LC-MS/MS analysis; format: ADME, organism-based; conditions: in vivo
[21] = AUC (0 to infinity) in male ICR mouse at 1 mg/kg, iv measured after 24 hrs by LC-MS/MS analysis; format: ADME, organism-based; conditions: in vivo
[22] = Clearance in male ICR mouse at 1 mg/kg, iv measured after 24 hrs by LC-MS/MS analysis; format: ADME, organism-based; conditions: in vivo
[23] = MRT (0 to infinity) in male ICR mouse at 1 mg/kg, iv measured after 24 hrs by LC-MS/MS analysis; format: ADME, organism-based; conditions: in vivo
[24] = Drug concentration in male ICR mouse plasma at 20 mg/kg, po measured after 0.25 hrs by LC-MS/MS analysis; format: ADME, organism-based
[25] = Drug concentration in male ICR mouse plasma at 20 mg/kg, po measured after 0.5 hrs by LC-MS/MS analysis; format: ADME, organism-based
[26] = Drug concentration in male ICR mouse plasma at 10 mg/kg, ip measured after 0.5 hrs by LC-MS/MS analysis; format: ADME, organism-based
[27] = Drug concentration in male ICR mouse brain at 20 mg/kg, po measured after 0.25 hrs by LC-MS/MS analysis; format: ADME, organism-based; conditions: read-out: Ct
[28] = Drug concentration in male ICR mouse brain at 20 mg/kg, po measured after 0.5 hrs by LC-MS/MS analysis; format: ADME, organism-based; conditions: read-out: Ct
[29] = Drug concentration in male ICR mouse brain at 10 mg/kg, ip measured after 0.25 hrs by LC-MS/MS analysis; format: ADME, organism-based; conditions: read-out: Ct
[30] = Drug concentration in male ICR mouse cerebrospinal fluid at 20 mg/kg, po measured after 0.25 hrs by LC-MS/MS analysis; format: ADME, organism-based; conditions: read-out: Ct
[31] = Drug concentration in male ICR mouse cerebrospinal fluid at 10 mg/kg, ip measured after 0.25 hrs by LC-MS/MS analysis; format: ADME, organism-based; conditions: read-out: Ct
[32] = Ratio of drug concentration in male ICR mouse brain to plasma at 20 mg/kg, po measured after 0.5 hrs by LC-MS/MS analysis; format: ADME, organism-based; conditions: read-out: BPR
Mus musculus [33] = test: Antiepileptic activity in MES-induced seizure male ICR mouse model assessed as protection against tonic hind limb extension at 5 mg/kg, ip measured after 30 mins relative to control; format: functional; conditions: 0.5 h
Mus musculus [34] = test: Antiepileptic activity in MES-induced seizure male ICR mouse model assessed as protection against tonic hind limb extension at 10 mg/kg, ip measured after 30 mins relative to control; format: functional; conditions: 0.5 h
Mus musculus [35] = test: Antiepileptic activity in MES-induced seizure male ICR mouse model assessed as protection against tonic hind limb extension administered intraperitoneally for 30 mins; format: functional; conditions: 0.5 h, route ip
Mus musculus [36] = test: Antiepileptic activity in 6 Hz(32 mA)-induced seizure male C57BL mouse model assessed as protection against seizure at 50 mg/kg, ip administered for 30 mins by epilepsy test; format: functional; conditions: 0.5 h
[37] = Neurotoxicity in male ICR mouse assessed as motor impairment at 20 mg/kg, ip administered for 30 mins by rotarod test relative to control; format: toxicity, organism-based; conditions: in vivo, 0.5 h
[38] = Neurotoxicity in male ICR mouse assessed as motor impairment at 25 mg/kg, ip administered for 30 mins by rotarod test relative to control; format: toxicity, organism-based; conditions: in vivo, 0.5 h
[39] = Neurotoxicity in male ICR mouse assessed as motor impairment at 30 mg/kg, ip administered for 30 mins by rotarod test relative to control; format: toxicity, organism-based; conditions: in vivo, 0.5 h
[40] = Neurotoxicity in male ICR mouse administered intraperitoneally for 30 mins; format: toxicity; conditions: in vivo, route ip
[41] = target: T1, Sodium channel protein type 2 subunit alpha; test: Inhibition of human Nav1.2 expressed in HEK293 cells assessed as effect on steady state inactivation by measuring half activation potential at 10 uM (reference value: -65 mV); format: cell-based

T1 sequence (Q99250 whole entry, looked up): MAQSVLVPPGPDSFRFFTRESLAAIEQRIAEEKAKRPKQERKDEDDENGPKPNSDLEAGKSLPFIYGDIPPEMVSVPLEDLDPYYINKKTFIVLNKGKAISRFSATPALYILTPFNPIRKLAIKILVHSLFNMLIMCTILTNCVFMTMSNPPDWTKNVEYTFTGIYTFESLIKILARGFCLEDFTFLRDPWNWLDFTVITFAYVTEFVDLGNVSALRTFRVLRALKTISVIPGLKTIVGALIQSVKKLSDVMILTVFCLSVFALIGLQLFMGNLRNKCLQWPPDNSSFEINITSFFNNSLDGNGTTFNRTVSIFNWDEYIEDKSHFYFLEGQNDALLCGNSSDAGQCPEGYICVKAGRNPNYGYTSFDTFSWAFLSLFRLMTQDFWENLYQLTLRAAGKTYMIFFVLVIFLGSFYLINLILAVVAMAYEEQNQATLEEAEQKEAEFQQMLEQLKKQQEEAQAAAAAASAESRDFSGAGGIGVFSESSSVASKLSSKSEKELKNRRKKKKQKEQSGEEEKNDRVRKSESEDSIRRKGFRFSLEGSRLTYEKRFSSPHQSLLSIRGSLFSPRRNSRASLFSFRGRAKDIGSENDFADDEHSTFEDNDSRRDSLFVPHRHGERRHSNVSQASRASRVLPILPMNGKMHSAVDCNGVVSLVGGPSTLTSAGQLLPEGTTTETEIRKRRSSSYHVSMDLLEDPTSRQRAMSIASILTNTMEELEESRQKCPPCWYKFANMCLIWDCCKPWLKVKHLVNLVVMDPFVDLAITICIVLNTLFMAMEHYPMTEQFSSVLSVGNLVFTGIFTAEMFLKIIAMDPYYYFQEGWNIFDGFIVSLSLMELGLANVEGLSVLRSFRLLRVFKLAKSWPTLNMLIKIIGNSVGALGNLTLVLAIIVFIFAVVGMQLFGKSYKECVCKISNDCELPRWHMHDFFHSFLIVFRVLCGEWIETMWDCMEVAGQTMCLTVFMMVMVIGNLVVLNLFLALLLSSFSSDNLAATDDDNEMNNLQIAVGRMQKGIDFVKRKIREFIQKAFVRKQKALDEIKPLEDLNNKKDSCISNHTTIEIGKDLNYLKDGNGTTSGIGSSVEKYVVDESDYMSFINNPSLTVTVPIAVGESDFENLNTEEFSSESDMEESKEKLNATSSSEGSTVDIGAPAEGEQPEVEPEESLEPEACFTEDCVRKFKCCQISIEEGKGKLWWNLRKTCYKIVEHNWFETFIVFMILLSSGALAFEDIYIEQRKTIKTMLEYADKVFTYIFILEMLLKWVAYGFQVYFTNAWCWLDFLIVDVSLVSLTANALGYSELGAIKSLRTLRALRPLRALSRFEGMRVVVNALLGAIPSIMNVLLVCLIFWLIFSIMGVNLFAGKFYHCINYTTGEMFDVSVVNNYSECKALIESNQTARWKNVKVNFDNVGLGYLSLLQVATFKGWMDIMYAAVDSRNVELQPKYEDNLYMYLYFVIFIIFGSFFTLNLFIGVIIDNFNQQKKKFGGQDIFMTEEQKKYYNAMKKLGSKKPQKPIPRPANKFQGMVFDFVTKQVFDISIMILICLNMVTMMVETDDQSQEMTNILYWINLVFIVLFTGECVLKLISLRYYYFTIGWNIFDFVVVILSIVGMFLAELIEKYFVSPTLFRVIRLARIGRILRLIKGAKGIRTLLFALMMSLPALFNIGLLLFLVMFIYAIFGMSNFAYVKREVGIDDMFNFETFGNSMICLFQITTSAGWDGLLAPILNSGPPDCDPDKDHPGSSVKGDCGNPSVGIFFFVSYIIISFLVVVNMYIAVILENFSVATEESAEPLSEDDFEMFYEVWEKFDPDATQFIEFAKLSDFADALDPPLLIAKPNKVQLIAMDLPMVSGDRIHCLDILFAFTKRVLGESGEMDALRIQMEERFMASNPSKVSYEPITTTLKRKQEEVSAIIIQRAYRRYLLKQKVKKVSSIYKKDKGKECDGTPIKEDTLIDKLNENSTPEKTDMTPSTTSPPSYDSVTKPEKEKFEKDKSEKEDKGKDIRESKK

T/C [1]: 0.03
inhibition [2]: 40%
T/C [3]: 0.65
T/C [4]: 0.03
T/C [7]: 0.53
T/C [8]: 0.06
Tmax [9]: 15 min
Cmax [10]: 63.4 ng/mL
AUC(0-inf) [11]: 118 ng·h/mL
MRT inf [12]: 130 min
half-life [13]: 82.8 min
bioavailability [14]: 3%
Tmax [15]: 7.2 min
Cmax [16]: 956 ng/mL
AUC(0-inf) [17]: 793 ng·h/mL
MRT inf [18]: 51 min
Tmax [19]: 3 min
Cmax [20]: 389 ng/mL
AUC(0-inf) [21]: 184 ng·h/mL
clearance [22]: 92.1 mL/min/kg
MRT inf [23]: 33.6 min
concentration at 0.25 h [24]: 166 ng/mL
concentration at 0.5 h [25]: 18.3 ng/mL
concentration at 0.5 h [26]: 221 ng/mL
concentration at 0.25 h [27]: 646 ng/g
concentration at 0.5 h [28]: 59.3 ng/g
concentration at 0.25 h [29]: 1900 ng/g
concentration at 0.25 h [30]: 22.1 ng/g
concentration at 0.25 h [31]: 11.7 ng/g
Kp at 0.5 h [32]: 3.2
V1/2 [41]: -77 mV
Compound: COc1cccc(-c2cc(N3CCCc4ccccc4C3)nc(N)n2)c1
T/C [5]: 0.87
T/C [6]: 0.06
Activity (Mus musculus [33]): 80%
Activity (Mus musculus [34]): 88%
ED50 (Mus musculus [35]): 3.2 mg/kg
Activity (Mus musculus [36]): 0%
Activity [37]: 13%
Activity [38]: 18%
Activity [39]: 88%
TD50 at 0.5 h [40]: 26.1 mg/kg
